Assay results as given in the NIST ThermoML archive (doi:10.1016/j.tca.2011.01.039).

Details: Fluid (supercritical or subcritical phases)

O=C=O [carbon dioxide]
mass density [kg/m3]
Details	10000 kPa	12000 kPa	15000 kPa	18000 kPa	21000 kPa
308 K	714.84	768.42	816.06	848.87	874.4
318 K	502.57	659.73	743.17	790.18	823.71
328 K	326.4	506.85	654.94	724.13	768.74
